Laboratory results from the supplement of paper PMC10307832.

Legend:
Assay in all cases: relative viability (nuclei count vs DMSO), 5 days (fraction); higher = more cells survive
HCC-366 = test system: HCC-366
Summary of the method: (§1)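 Medians of duplicate plates are given as relative viability. That measure is the nuclei count in treated wells divided by the count in vehicle wells. Counts were taken on 4× images of lung cancer cell lines in 1536-well plates, 5 days after pin-tool dosing the day after seeding with one drug alone or a fixed anchor-drug dose plus five library-drug doses (not always all listed) in √10 steps.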

NCI-H1395 = test system: NCI-H1395
Summary of the method: as §1

NCI-H2087 = test system: NCI-H2087
Summary of the method: as §1

SK-LU-1 = test system: SK-LU-1
Summary of the method: as §1

NCI-H522 = test system: NCI-H522
Summary of the method: as §1

NCI-H647 = test system: NCI-H647
Summary of the method: as §1

NCI-H2405 = test system: NCI-H2405
Summary of the method: as §1

NCI-H1993 = test system: NCI-H1993
Summary of the method: as §1

HARA = test system: HARA
Summary of the method: as §1

NCI-H2170 = test system: NCI-H2170
Summary of the method: as §1

BEN = test system: BEN
Summary of the method: as §1

SK-MES-1 = test system: SK-MES-1
Summary of the method: as §1

EKVX = test system: EKVX
Summary of the method: as §1

NCI-H661 = test system: NCI-H661
Summary of the method: as §1

LOU-NH91 = test system: LOU-NH91
Summary of the method: as §1

NCI-H1734 = test system: NCI-H1734
Summary of the method: as §1

HCC-827 = test system: HCC-827
Summary of the method: as §1

NCI-H1792 = test system: NCI-H1792
Summary of the method: as §1

NCI-H1437 = test system: NCI-H1437
Summary of the method: as §1

NCI-H2009 = test system: NCI-H2009
Summary of the method: as §1

NCI-H2342 = test system: NCI-H2342
Summary of the method: as §1

NCI-H1355 = test system: NCI-H1355
Summary of the method: as §1

COc1cc2nccc(Oc3ccc(NC(=O)Nc4cc(C)on4)c(Cl)c3)c2cc1OC [Tivozanib] + CC(=O)Nc1cccc(-n2c(=O)n(C3CC3)c(=O)c3c(Nc4ccc(I)cc4F)n(C)c(=O)c(C)c32)c1 [Trametinib] (partner 0.02 µM)
relative viability (HCC-366; first compound 0.005 µM): 0.363 | relative viability (HCC-366; first compound 0.01581 µM): 0.349 | relative viability (HCC-366; first compound 0.05 µM): 0.341 | relative viability (HCC-366; first compound 0.1581 µM): 0.323 | relative viability (HCC-366; first compound 0.5 µM): 0.426 | relative viability (NCI-H1395; first compound 0.005 µM): 0.992 | relative viability (NCI-H1395; first compound 0.01581 µM): 0.961 | relative viability (NCI-H1395; first compound 0.05 µM): 1.17 | relative viability (NCI-H1395; first compound 0.1581 µM): 0.952 | relative viability (NCI-H1395; first compound 0.5 µM): 0.938 | relative viability (NCI-H2087; first compound 0.005 µM): 0.147 | relative viability (NCI-H2087; first compound 0.01581 µM): 0.211 | relative viability (NCI-H2087; first compound 0.05 µM): 0.193 | relative viability (NCI-H2087; first compound 0.1581 µM): 0.166 | relative viability (NCI-H2087; first compound 0.5 µM): 0.243 | relative viability (SK-LU-1; first compound 0.005 µM): 0.508 | relative viability (SK-LU-1; first compound 0.01581 µM): 0.498 | relative viability (SK-LU-1; first compound 0.05 µM): 0.594 | relative viability (SK-LU-1; first compound 0.1581 µM): 0.3 | relative viability (SK-LU-1; first compound 0.5 µM): 0.503 | relative viability (NCI-H522; first compound 0.005 µM): 0.877 | relative viability (NCI-H522; first compound 0.01581 µM): 0.732 | relative viability (NCI-H522; first compound 0.05 µM): 0.705 | relative viability (NCI-H522; first compound 0.1581 µM): 0.684 | relative viability (NCI-H522; first compound 0.5 µM): 0.804 | relative viability (NCI-H647; first compound 0.005 µM): 0.521 | relative viability (NCI-H647; first compound 0.01581 µM): 0.461 | relative viability (NCI-H647; first compound 0.05 µM): 0.483 | relative viability (NCI-H647; first compound 0.1581 µM): 0.408 | relative viability (NCI-H647; first compound 0.5 µM): 0.49 | relative viability (NCI-H2405; first compound 0.005 µM): 0.543 | relative viability (NCI-H2405; first compound 0.01581 µM): 0.664 | relative viability (NCI-H2405; first compound 0.05 µM): 0.607 | relative viability (NCI-H2405; first compound 0.1581 µM): 0.499 | relative viability (NCI-H2405; first compound 0.5 µM): 0.554 | relative viability (NCI-H1993; first compound 0.005 µM): 0.562 | relative viability (NCI-H1993; first compound 0.01581 µM): 0.354 | relative viability (NCI-H1993; first compound 0.05 µM): 0.625 | relative viability (NCI-H1993; first compound 0.1581 µM): 0.63 | relative viability (NCI-H1993; first compound 0.5 µM): 0.502 | relative viability (HARA; first compound 0.005 µM): 0.628 | relative viability (HARA; first compound 0.01581 µM): 0.817 | relative viability (HARA; first compound 0.05 µM): 0.615 | relative viability (HARA; first compound 0.1581 µM): 1.06 | relative viability (HARA; first compound 0.5 µM): 0.744 | relative viability (NCI-H2170; first compound 0.005 µM): 0.827 | relative viability (NCI-H2170; first compound 0.01581 µM): 0.92 | relative viability (NCI-H2170; first compound 0.05 µM): 0.893 | relative viability (NCI-H2170; first compound 0.5 µM): 0.983 | relative viability (BEN; first compound 0.005 µM): 1.13 | relative viability (BEN; first compound 0.01581 µM): 1.1 | relative viability (BEN; first compound 0.05 µM): 0.961 | relative viability (BEN; first compound 0.1581 µM): 0.903 | relative viability (BEN; first compound 0.5 µM): 1 | relative viability (SK-MES-1; first compound 0.005 µM): 0.542 | relative viability (SK-MES-1; first compound 0.01581 µM): 0.602 | relative viability (SK-MES-1; first compound 0.05 µM): 0.558 | relative viability (SK-MES-1; first compound 0.1581 µM): 0.542 | relative viability (SK-MES-1; first compound 0.5 µM): 0.7 | relative viability (EKVX; first compound 0.005 µM): 0.32 | relative viability (EKVX; first compound 0.01581 µM): 0.467 | relative viability (EKVX; first compound 0.05 µM): 0.477 | relative viability (EKVX; first compound 0.1581 µM): 0.292 | relative viability (EKVX; first compound 0.5 µM): 0.345 | relative viability (NCI-H661; first compound 0.005 µM): 0.588 | relative viability (NCI-H661; first compound 0.01581 µM): 0.562 | relative viability (NCI-H661; first compound 0.05 µM): 0.618 | relative viability (NCI-H661; first compound 0.1581 µM): 0.522 | relative viability (NCI-H661; first compound 0.5 µM): 0.641 | relative viability (LOU-NH91; first compound 0.005 µM): 0.736 | relative viability (LOU-NH91; first compound 0.01581 µM): 0.805 | relative viability (LOU-NH91; first compound 0.05 µM): 0.784 | relative viability (LOU-NH91; first compound 0.1581 µM): 0.744 | relative viability (LOU-NH91; first compound 0.5 µM): 0.767 | relative viability (NCI-H1734; first compound 0.005 µM): 0.645 | relative viability (NCI-H1734; first compound 0.01581 µM): 0.642 | relative viability (NCI-H1734; first compound 0.05 µM): 0.666 | relative viability (NCI-H1734; first compound 0.1581 µM): 0.479 | relative viability (NCI-H1734; first compound 0.5 µM): 0.638 | relative viability (HCC-827; first compound 0.005 µM): 0.52 | relative viability (HCC-827; first compound 0.01581 µM): 0.543 | relative viability (HCC-827; first compound 0.05 µM): 0.571 | relative viability (HCC-827; first compound 0.1581 µM): 0.527 | relative viability (HCC-827; first compound 0.5 µM): 0.533 | relative viability (NCI-H1792; first compound 0.005 µM): 0.401 | relative viability (NCI-H1792; first compound 0.01581 µM): 0.397 | relative viability (NCI-H1792; first compound 0.05 µM): 0.438 | relative viability (NCI-H1792; first compound 0.5 µM): 0.632 | relative viability (NCI-H1437; first compound 0.005 µM): 0.567 | relative viability (NCI-H1437; first compound 0.01581 µM): 0.535 | relative viability (NCI-H1437; first compound 0.05 µM): 0.592 | relative viability (NCI-H1437; first compound 0.1581 µM): 0.49 | relative viability (NCI-H1437; first compound 0.5 µM): 0.522 | relative viability (NCI-H2009; first compound 0.005 µM): 0.269 | relative viability (NCI-H2009; first compound 0.01581 µM): 0.323 | relative viability (NCI-H2009; first compound 0.05 µM): 0.295 | relative viability (NCI-H2009; first compound 0.1581 µM): 0.204 | relative viability (NCI-H2009; first compound 0.5 µM): 0.339 | relative viability (NCI-H2342; first compound 0.005 µM): 0.823 | relative viability (NCI-H2342; first compound 0.01581 µM): 0.834 | relative viability (NCI-H2342; first compound 0.05 µM): 1.92 | relative viability (NCI-H2342; first compound 0.5 µM): 0.733 | relative viability (NCI-H1355; first compound 0.005 µM): 0.413 | relative viability (NCI-H1355; first compound 0.01581 µM): 0.432 | relative viability (NCI-H1355; first compound 0.05 µM): 0.455 | relative viability (NCI-H1355; first compound 0.1581 µM): 0.33 | relative viability (NCI-H1355; first compound 0.5 µM): 0.408
